Test results taken from patent publication US12533340B2, “Treatment of autoimmune disease in a patient receiving additionally a beta-blocker” (NOVARTIS AG, priority 2015, dated 2026).

Key:
healthy volunteers [1] = assay: Clinical trial: effect on heart rate (EmaxHR) from 12-lead Holter ECG recordings; assay type: in vivo, human; conditions: for mean EmaxHR (maximum change from baseline in time matched, hourly average HR): Day 10, monotherapy at steady state, siponimod 2 mg qd after titration or propranolol 80 mg LA qd, placebo 11.73 bpm
Source text: (§1) Healthy volunteers (men and women) aged between 18 and 55 years with a body mass index of 18-30 kg/m^2 were included in the study. Subjects were required to have an FEV1 of ≥90% of predicted normal, a systolic blood pressure (BP) of 90-140 mm Hg, a diastolic BP of 50-90 mm Hg and a pulse rate of 50-90 bpm. Women of childbearing potential, pregnant or lactating women, homozygous carriers for CYP2C9*3 genotype, smokers, those with current or medical history of cardiovascular disorders or bronchospastic disease were excluded from this study. At screening, a 24 h Holter recording was performed on all subjects to exclude those with any significant arrhythmia.
This was a double-blind, randomised, placebo-controlled study consisting of the following periods: screening (28 days), baseline evaluation (2 days), treatment (20 days) and study completion evaluation (approximately 10 days after the last drug administration; FIG. 1). Eligible subjects were domiciled for 22 days, starting approximately 36 h before dosing until 24 h post-dose after Day 20. The baseline evaluations were performed on Day −2 or Day −1. Subjects were randomised to one of the four treatment groups (A, B, C and D) in a ratio of 1:1:1:1. […] In Group A, treatment was initiated with the siponimod dose-titration regimen (Days 1-6) followed by siponimod 2 mg (Days 7-20). Siponimod was uptitrated by one administration of 0.25 mg siponimod on day 1, one administration of 0.25 mg siponimod on day 2, one administration of 0.5 mg siponimod on day 3, one administration of 0.75 mg siponimod on day 4, one administration of 1.25 mg siponimod on day 5 and one administration of 2 mg siponimod on day 6, followed by a steady dose of 2 mg siponimod qd thereafter. […] These subjects concomitantly received siponimod-placebo (Days 1-10), followed by the siponimod dose-titration regimen (Days 11-16) and siponimod 2 mg (Days 17-20). […]
(§2) The HR and bradyarrhythmias were evaluated from the 12-Lead Holter electrocardiogram (ECG) recordings. […] The hourly average HR in each post-dose hour was calculated from the 60 intervals of per minute HR data. […]

healthy volunteers [2] = assay: Clinical trial: bradyarrhythmias (AVBs, sinus pauses) from 24 h post-dose Holter evaluation; assay type: in vivo, human
Source text: as §1
This was a double-blind, randomised, placebo-controlled study consisting of the following periods: screening (28 days), baseline evaluation (2 days), treatment (20 days) and study completion evaluation (approximately 10 days after the last drug administration; FIG. 1). Eligible subjects were domiciled for 22 days, starting approximately 36 h before dosing until 24 h post-dose after Day 20. […]
as §2
The cardiac rhythm was evaluated from the 24 h post-dose Holter evaluation as mentioned earlier. […]

[3] = deduced on the basis of previous reports (Legangneux 2013, Murdoch 1991); cited from earlier work

Structure (SMILES) | mean EmaxHR (maximum change from baseline in time matched, hourly average HR) (healthy volunteers [1]) | episodes of Mobitz I AVB (healthy volunteers [2]; propranolol only treatment) | mean difference in EmaxHR, siponimod alone versus propranolol alone (healthy volunteers [1]; Day 10, 95% CI -4.98, 2.87, P=0.595) | episodes of second-degree AVBs or SPs of >3 seconds duration (healthy volunteers [2]; 24 h Holter on the evaluation days) | time to reach a pharmacokinetic steady state [3]
CC(C)NCC(O)COc1cccc2ccccc12 (stereo not drawn) [propranolol, reference compound] | 17.85 bpm | Two | – | – | –
CCc1cc(/C(C)=N/OCc2ccc(C3CCCCC3)c(C(F)(F)F)c2)ccc1CN1CC(C(=O)O)C1 [siponimod, 1-{4-[1-((E)-4-cyclohexyl-3-trifluoromethyl-benzyloxyimino)-ethyl]-2-ethyl-benzyl}-azetidine-3-carboxylic acid] | 16.79 bpm | – | −1.06 bpm | no episodes | approximately 10 days
